The results in this text go back to patent US10479780B2, “Aminopyrazole derivatives” (Chugai Seiyaku Kabushiki Kaisha, priority 2015, dated 2019).

The structures appear in SMILES notation. Where two headings read alike, the source gives them in different places.

Holding throughout (format): biochemical
In test [1] the target is T1, human Lck enzyme (Homo sapiens, UniProt P06239).
T1 construct: purchased Carna Biosciences, Inc. 08-170
The test can be described thus: Lck enzyme inhibitory activity (time-resolved fluorometry, biotinylated peptide phosphorylation). Conditions: read-out: LCK_IC50. In a few lines:
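Readout pairs a europium cryptate-labelled anti-phosphotyrosine antibody with XL665-streptavidin, measured by time-resolved fluorescence. IC50 derived from percent inhibition against untreated controls.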

The target in test [2] is T2, human Yes1 enzyme (Homo sapiens, UniProt P07947).
T2 construct: made in house
As to the kind of experiment: Yes1 enzyme inhibitory activity (time-resolved fluorometry, biotinylated peptide phosphorylation). Conditions: read-out: YES_IC50. In a few lines: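 Inhibition was expressed against a compound-free control to give IC50, using TR-FRET read-out (Eu-cryptate anti-pTyr antibody, streptavidin-XL665).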

In test [3] the target is T3, human Src enzyme (Homo sapiens, UniProt P12931).
T3 construct: purchased Carna Biosciences, Inc. 08-173
As to the kind of experiment: Src enzyme inhibitory activity (time-resolved fluorometry, biotinylated peptide phosphorylation). Conditions: read-out: SRC_IC50. The essentials:
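Compounds were tested for blocking tyrosine phosphorylation of a biotinylated peptide substrate by recombinant human Src. Phosphorylated product was quantified by time-resolved fluorometry using europium cryptate and XL665 conjugates, and IC50 was calculated against the compound-free control.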

[4] abbreviates: biotinylated peptide phosphorylation.

T1 sequence (P06239 whole entry): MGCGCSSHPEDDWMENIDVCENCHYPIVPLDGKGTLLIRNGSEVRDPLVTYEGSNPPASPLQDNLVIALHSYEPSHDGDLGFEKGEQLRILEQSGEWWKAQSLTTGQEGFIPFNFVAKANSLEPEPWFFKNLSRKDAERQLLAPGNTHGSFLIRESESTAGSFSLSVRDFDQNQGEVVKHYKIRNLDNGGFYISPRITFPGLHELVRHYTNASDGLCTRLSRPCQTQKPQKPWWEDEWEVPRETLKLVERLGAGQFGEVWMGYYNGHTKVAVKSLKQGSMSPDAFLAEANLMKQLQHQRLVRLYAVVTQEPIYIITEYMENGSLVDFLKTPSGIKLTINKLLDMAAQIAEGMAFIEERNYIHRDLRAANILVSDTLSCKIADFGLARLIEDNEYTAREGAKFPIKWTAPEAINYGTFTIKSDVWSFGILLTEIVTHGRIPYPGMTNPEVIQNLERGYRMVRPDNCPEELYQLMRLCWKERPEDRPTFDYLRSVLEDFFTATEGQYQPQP
T3 sequence (P12931 whole entry): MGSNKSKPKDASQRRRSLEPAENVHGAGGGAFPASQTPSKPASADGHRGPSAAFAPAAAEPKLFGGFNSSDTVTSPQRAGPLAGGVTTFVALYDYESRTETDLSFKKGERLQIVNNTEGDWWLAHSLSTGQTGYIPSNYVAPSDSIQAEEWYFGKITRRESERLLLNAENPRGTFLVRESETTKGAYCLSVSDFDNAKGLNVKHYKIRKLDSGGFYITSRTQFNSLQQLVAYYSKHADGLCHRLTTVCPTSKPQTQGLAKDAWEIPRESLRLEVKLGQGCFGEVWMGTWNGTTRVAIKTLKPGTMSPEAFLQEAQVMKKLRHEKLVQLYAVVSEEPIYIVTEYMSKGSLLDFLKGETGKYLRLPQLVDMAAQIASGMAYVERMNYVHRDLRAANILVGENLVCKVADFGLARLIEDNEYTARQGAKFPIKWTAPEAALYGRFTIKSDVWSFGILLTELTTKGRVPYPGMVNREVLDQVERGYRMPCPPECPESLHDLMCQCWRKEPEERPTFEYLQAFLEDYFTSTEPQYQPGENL
T2 sequence (P07947 whole entry): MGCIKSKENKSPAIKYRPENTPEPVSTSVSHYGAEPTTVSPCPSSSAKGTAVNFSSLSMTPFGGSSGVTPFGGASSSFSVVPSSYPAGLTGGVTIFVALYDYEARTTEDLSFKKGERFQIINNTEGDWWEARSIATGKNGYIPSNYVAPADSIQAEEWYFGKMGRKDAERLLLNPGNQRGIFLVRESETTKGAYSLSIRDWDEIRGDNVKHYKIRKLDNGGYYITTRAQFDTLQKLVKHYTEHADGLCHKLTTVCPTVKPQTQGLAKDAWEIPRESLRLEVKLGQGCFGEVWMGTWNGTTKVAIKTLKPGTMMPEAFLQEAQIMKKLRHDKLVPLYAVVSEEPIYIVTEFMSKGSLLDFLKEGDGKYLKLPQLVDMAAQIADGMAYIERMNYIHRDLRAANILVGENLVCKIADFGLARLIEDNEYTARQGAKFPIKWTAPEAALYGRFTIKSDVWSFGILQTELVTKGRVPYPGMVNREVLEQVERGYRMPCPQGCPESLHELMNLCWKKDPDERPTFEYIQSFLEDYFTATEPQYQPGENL

As to `Cc1cc(-n2ncc(C(=O)c3cc4cc(OC5CCN(C(C)C)CC5)c(-c5cncnc5)cc4[nH]3)c2N)ccc1Oc1ccccc1F` [Example 5-1-240, [5-amino-1-[4-(2-fluorophenoxy)-3-methylphenyl]pyrazol-4-yl]-[5-(1-propan-2-ylpiperidin-4-yl)oxy-6-pyrimidin-5-yl-1H-indol-2-yl]methanone], the figures for the IC50 in test [1], in test [2] and in test [3] were 19 nM, 2 nM and 75 nM, respectively.
Consider `Cc1cc(Oc2ccccc2F)ccc1-n1ncc(C(=O)c2cc3cc(F)c(NS(=O)(=O)NC4CCC4)cc3[nH]2)c1N` [Example 4-5-006, [5-amino-1-[4-(2-fluorophenoxy)-2-methylphenyl]pyrazol-4-yl]-[6-(cyclobutylsulfamoylamino)-5-fluoro-1H-indol-2-yl]methanone], for which the IC50 was determined as 62 nM in test [1] (setting [4]), 6.8 nM in test [2] (setting [4]) and 140 nM in test [3] (setting [4]).
`Cc1cc(-n2ncc(C(=O)c3cc4cc(OC5CCN(C6CCC6)CC5)c(F)cc4[nH]3)c2N)ccc1Oc1ccccc1F` [Example 5-1-234, [5-amino-1-[4-(2-fluorophenoxy)-3-methylphenyl]pyrazol-4-yl]-[5-(1-cyclobutylpiperidin-4-yl)oxy-6-fluoro-1H-indol-2-yl]methanone]: the IC50 is 73 nM in test [1], 3.2 nM in test [2] and 490 nM in test [3].
`Cc1cc(Oc2c(F)cccc2F)ncc1-n1ncc(C(=O)c2cc3cc(OC4CCN(C(C)C)CC4)c(Cl)cc3[nH]2)c1N` [Example 5-1-205, [5-amino-1-[6-(2,6-difluorophenoxy)-4-methylpyridin-3-yl]pyrazol-4-yl]-[6-chloro-5-(1-propan-2-ylpiperidin-4-yl)oxy-1H-indol-2-yl] methanone]: the IC50 in test [1] is 7.2 nM; in test [2], 0.43 nM; in test [3], 15 nM.
On to `Cc1cc(Oc2c(F)cccc2F)ncc1-n1ncc(C(=O)c2cc3cc(Cl)c(NS(C)(=O)=O)cc3[nH]2)c1N` [Example 4-2-086, N-[2-[5-amino-1-[6-(2,6-difluorophenoxy)-4-methylpyridin-3-yl]pyrazole-4-carbonyl]-5-chloro-1H-indol-6-yl]methanesulfonamide], for which the IC50 came to 8.3 nM in test [1] (setting [4]), 1.6 nM in test [2] (setting [4]) and 99 nM in test [3] (setting [4]).
On to `Cc1cc2cc(C(=O)c3cnn(-c4c(C)cc(Oc5c(F)cccc5F)cc4F)c3N)[nH]c2cc1NS(C)(=O)=O` [Example 5-1-140, N-[2-[5-amino-1-[4-(2,6-difluorophenoxy)-2-fluoro-6-methylphenyl]pyrazole-4-carbonyl]-5-methyl-1H-indol-6-yl]methanesulfonamide], for which the IC50 in test [1] turned out to be 24 nM; in test [2] it was 2.8 nM; in test [3] it was 48 nM.
For the compound `Cc1cc(Oc2ccccc2F)ccc1-n1ncc(C(=O)c2cc3cc(OCC(F)F)c(N4C(=O)NC5(CCN(Cc6ccccc6)C5)C4=O)cc3[nH]2)c1N` (stereo not drawn) [Example 5-1-355, 3-[2-[5-amino-1-[4-(2-fluorophenoxy)-2-methylphenyl]pyrazole-4-carbonyl]-5-(2,2-difluoroethoxy)-1H-indol-6-yl]-7-benzyl-1,3,7-triazaspiro[4.4]nonane-2,4-dione], the results for the IC50 in test [1], in test [2] and in test [3] were 13 nM, 8 nM and 97 nM, respectively.
Turning to `Cc1cc(-n2ncc(C(=O)c3cc4cc(OCC(F)F)c(-c5cnn(C)c5)cc4[nH]3)c2N)ccc1Oc1ccccc1F` [Example 5-1-263, [5-amino-1-[4-(2-fluorophenoxy)-3-methylphenyl]pyrazol-4-yl]-[5-(2,2-difluoroethoxy)-6-(1-methylpyrazol-4-yl)-1H-indol-2-yl]methanone], the figures for the IC50 in test [1], in test [2] and in test [3] were 710 nM, 19 nM and 2600 nM, respectively.
Regarding `Cc1cc(Oc2ccccc2F)ncc1-n1ncc(C(=O)c2cc3cc(OCC(F)F)c(C4CCN(S(C)(=O)=O)CC4)cc3[nH]2)c1N` [Example 4-17-021, [5-amino-1-[6-(2-fluorophenoxy)-4-methylpyridin-3-yl]pyrazol-4-yl]-[5-(2,2-difluoroethoxy)-6-(1-methylsulfonylpiperidin-4-yl)-1H-indol-2-yl]methanone], the IC50 in test [1] (setting [4]) is 5.6 nM; in test [2] (setting [4]), 0.76 nM; in test [3] (setting [4]) it was 9.7 nM.
For the compound `Cc1cc(Oc2c(F)cccc2F)ncc1-n1ncc(C(=O)c2cc3cc(OC4CCN(C5CC5)CC4)c(Br)cc3[nH]2)c1N` [Example 5-1-224, [5-amino-1-[6-(2,6-difluorophenoxy)-4-methylpyridin-3-yl]pyrazol-4-yl]-[6-bromo-5-(1-cyclopropylpiperidin-4-yl)oxy-1H-indol-2-yl] methanone], the IC50 in test [1] was 6.3 nM; in test [2], 0.57 nM; in test [3], 17 nM.
Turning to `Cc1cc2cc(C(=O)c3cnn(-c4cnc(Oc5ccccc5F)cc4C)c3N)[nH]c2cc1NS(=O)(=O)CCCF` [Example 4-2-072, N-[2-[5-amino-1-[6-(2-fluorophenoxy)-4-methylpyridin-3-yl]pyrazole-4-carbonyl]-5-methyl-1H-indol-6-yl]-3-fluoropropane-1-sulfonamide], the IC50 is 20 nM in test [1] (setting [4]), 1.8 nM in test [2] (setting [4]) and 88 nM in test [3] (setting [4]).
Turning to `Cc1cc(Oc2ccccc2F)ccc1-n1ncc(C(=O)c2cc3cc(F)c(NS(=O)(=O)NC(C)(C)CO)cc3[nH]2)c1N` [Example 4-6-003, [5-amino-1-[4-(2-fluorophenoxy)-2-methylphenyl]pyrazol-4-yl]-[5-fluoro-6-[(1-hydroxy-2-methylpropan-2-yl)sulfamoylamino]-1H-indol-2-yl]methanone], the values for the IC50 in test [1] (setting [4]), in test [2] (setting [4]) and in test [3] (setting [4]) were 22 nM, 2.3 nM and 88 nM, respectively.
`Cc1cc(Oc2ccccc2F)ccc1-n1ncc(C(=O)c2cc3cc(F)c(NS(=O)(=O)CC4COCCO4)cc3[nH]2)c1N` (stereo not drawn) [Example 4-7-002, N-[2-[5-amino-1-[4-(2-fluorophenoxy)-2-methylphenyl]pyrazole-4-carbonyl]-5-fluoro-1H-indol-6-yl]-1-(1,4-dioxan-2-yl)methanesulfonamide]: the IC50 in test [1] (setting [4]) turned out to be 9.1 nM; in test [2] (setting [4]) it was 0.43 nM; in test [3] (setting [4]), 9.5 nM.
On to `Cc1cc(Oc2c(F)cccc2F)ncc1-n1ncc(C(=O)c2cc3cc(OC4CCN(C(C)C)CC4)c(C4CCN(S(C)(=O)=O)CC4)cc3[nH]2)c1N` [Example 5-1-229, (5-amino-1-(6-(2,6-difluorophenoxy)-4-methylpyridin-3-yl)-1H-pyrazol-4-yl)(5-((1-isopropylpiperidin-4-yl)oxy)-6-(1-(methylsulfonyl)piperidin-4-yl)-1H-indol-2-yl)methanone], for which the IC50 came to 2.4 nM in test [1], 0.77 nM in test [2] and 6.1 nM in test [3].
`Cc1cc(Oc2c(F)cccc2F)ncc1-n1ncc(C(=O)c2cc3cc(F)c(N(C(C)C)S(C)(=O)=O)cc3[nH]2)c1N` [Example 5-1-067, N-[2-[5-amino-1-[6-(2,6-difluorophenoxy)-4-methylpyridin-3-yl]pyrazole-4-carbonyl]-5-fluoro-1H-indol-6-yl]-N-propan-2-ylmethanesulfonamide]: the results for the IC50 in test [1], in test [2] and in test [3] were 5.6 nM, 2.3 nM and 62 nM, respectively.
On the same counts, the results for `Cc1cc2cc(C(=O)c3cnn(-c4ccc(Oc5c(F)cccc5Cl)cc4C)c3N)[nH]c2cc1NS(C)(=O)=O` [Example 5-1-096, N-[2-[5-amino-1-[4-(2-chloro-6-fluorophenoxy)-2-methylphenyl]pyrazole-4-carbonyl]-5-methyl-1H-indol-6-yl] methanesulfonamide] are 2.7 nM, 1.7 nM and 33 nM.
For the compound `COc1cc2cc(C(=O)c3cnn(-c4ccc(Oc5ccccc5F)cc4C)c3N)[nH]c2cc1NS(=O)(=O)CC(=O)N1CCOCC1` [Example 4-10-012, N-[2-[5-amino-1-[4-(2-fluorophenoxy)-2-methylphenyl]pyrazole-4-carbonyl]-5-methoxy-1H-indol-6-yl]-2-morpholin-4-yl-2-oxoethanesulfonamide], the IC50 in test [1] (setting [4]) was determined as 5.1 nM; in test [2] (setting [4]), 0.3 nM; in test [3] (setting [4]), 9.8 nM.
Take `Cc1cc(Oc2c(F)cccc2F)ncc1-n1ncc(C(=O)c2cc3cc(OCC(F)F)c(NS(=O)(=O)c4ccccc4Cl)cc3[nH]2)c1N` [Example 5-1-328, N-[2-[5-amino-1-[6-(2,6-difluorophenoxy)-4-methylpyridin-3-yl]pyrazole-4-carbonyl]-5-(2,2-difluoroethoxy)-1H-indol-6-yl]-2-chlorobenzenesulfonamide]: the IC50 in test [1] worked out at 230 nM; in test [2], 14 nM; in test [3] it was 890 nM.
Take `CC(=O)N1CCC(c2cc3[nH]c(C(=O)c4cnn(-c5cnc(Oc6ccccc6F)cc5C)c4N)cc3cc2OC(F)F)CC1` [Example 4-17-008, 1-[4-[2-[5-amino-1-[6-(2-fluorophenoxy)-4-methylpyridin-3-yl]pyrazole-4-carbonyl]-5-(difluoromethoxy)-1H-indol-6-yl]piperidin-1-yl]ethanone]: the IC50 in test [1] (setting [4]) amounted to 5.5 nM; in test [2] (setting [4]) it was 1.6 nM; in test [3] (setting [4]) it was 13 nM.
On to `Cc1cc(-n2ncc(C(=O)c3cc4cc(OC5CCN(C(C)C)CC5)c(N5CCOCC5)cc4[nH]3)c2N)ccc1Oc1ccccc1F` [Example 5-1-174, (5-amino-1-(4-(2-fluorophenoxy)-3-methylphenyl)-1H-pyrazol-4-yl)(5-((1-isopropylpiperidin-4-yl)oxy)-6-morpholino-1H-indol-2-yl)methanone], for which the IC50 in test [1] amounted to 4.5 nM; in test [2] it was 0.56 nM; in test [3], 46 nM.
